The results in this text go back to patent publication US7432227B2, “6-alkyl or alkenyl-4-aminopicolinates and their use as herbicides” (Dow AgroSciences LLC, priority 2003, dated 2008).

As usually defined, the melting point is the temperature, or range, at which the solid turns liquid.

Data set [1] deals with Barnyardgrass (Echinochloa crus-galli). As to the kind of experiment: Postemergence herbicidal activity, Barnyardgrass. Type of data set: in vivo. The settings on record: post-emergence, 336 h, visual score after 2 weeks, 0 = no injury, 100 = complete kill, read-out: Post-emergent % control ECHCG; for pest or weed control at 250 ppm: rate 250 ppm. As for the experimental part:
(§1) Seeds of the desired test plant species were planted in Grace-Sierra MetroMix® 306 planting mixture, which typically has a pH of 6.0 to 6.8 and an organic matter content of about 30 percent, in plastic pots with a surface area of 64 square centimeters. When required to ensure good germination and healthy plants, a fungicide treatment and/or other chemical or physical treatment was applied. The plants were grown for 7-21 days in a greenhouse with an approximate 15 hr photoperiod which was maintained at about 23-29° C. during the day and 22-28° C. during the night. Nutrients and water were added on a regular basis and supplemental lighting was provided with overhead metal halide 1000-Watt lamps as necessary. The plants were employed for testing when they reached the first or second true leaf stage. A weighed amount, determined by the highest rate to be tested, of each test compound was placed in a 20 mL glass vial and was dissolved in 4 mL of a 97:3 v/v (volume/volume) mixture of acetone and dimethyl sulfoxide (DMSO) to obtain concentrated stock solutions. […] The concentrated stock solutions obtained were diluted with an aqueous mixture containing acetone, water, isopropyl alcohol, DMSO, Atplus 411F crop oil concentrate, and Triton X-155 surfactant in a 48.5:39:10:1.5:1.0:0.02 v/v ratio to obtain spray solutions of known concentration. The solutions containing the highest concentration to be tested were prepared by diluting 2 mL aliquots of the stock solution with 13 mL of the mixture and lower concentrations were prepared by serial dilution of the stock solution. Approximately 1.5 mL aliquots of each solution of known concentration were sprayed evenly onto each of the test plant pots using a DeVilbiss atomizer driven by compressed air pressure of 2 to 4 psi (140 to 280 kilopascals) to obtain thorough coverage of each plant. Control plants were sprayed in the same manner with the aqueous mixture. In this test an application rate of 1 ppm results in the application of approximately 1 g/Ha. The treated plants and control plants were placed in a greenhouse as described above and watered by sub-irrigation to prevent wash-off of the test compounds. After 2 weeks the condition of the test plants as compared with that of the untreated plants was determined visually and scored on a scale of 0 to 100 percent where 0 corresponds to no injury and 100 corresponds to complete kill.

The subject of data set [2] is Lambsquarter (Chenopodium album). As to the kind of experiment: Postemergence herbicidal activity, Lambsquarter. Type of data set: in vivo. The note with it: post-emergence, 336 h, visual score after 2 weeks, 0 = no injury, 100 = complete kill, read-out: Post-emergent % control CHEAL; for pest or weed control at 250 ppm: rate 250 ppm. As for the experimental part: as §1

Data set [3] deals with Crabgrass(large) (Digitaria sanguinalis). As to the kind of experiment: Preemergence herbicidal activity, Crabgrass(large). Type of data set: in vivo. The settings on record: pre-emergence, 504 h, visual score after 3 weeks, 100 = complete kill or no germination, read-out: Pre-emergent % control DIGSA; for pest or weed control at 280 ppm: rate 280 ppm. An excerpt:
(§2) Seeds of the desired test plant species were planted in a soil matrix prepared by mixing a loam soil (43 percent silt, 19 percent clay, and 38 percent sand, with a pH of about 8.1 and an organic matter content of about 1.5 percent) and sand in a 70 to 30 ratio. The soil matrix was contained in plastic pots with a surface area of 113 square centimeters. When required to ensure good germination and healthy plants, a fungicide treatment and/or other chemical or physical treatment was applied. A weighed amount, determined by the highest rate to be tested, of each test compound was placed in a 20 mL glass vial and was dissolved in 4 mL of a 97:3 v/v (volume/volume) mixture of acetone and dimethyl sulfoxide to obtain concentrated stock solutions. […] The stock solutions obtained were diluted with a 99.9:0.1 mixture of water and Tween® […] surfactant to obtain application solutions of known concentration. The solutions containing the highest concentration to be tested were prepared by diluting 2 mL aliquots of the stock solution with 15 mL of the mixture and lower concentrations were prepared by serial dilution of the stock solution. A 2.5 mL aliquot of each solution of known concentration was sprayed evenly onto the soil surface (113 sq. cm) of each seeded pot using a Cornwall 5.0 mL glass syringe fitted with a TeeJet TN-3 hollow cone nozzle to obtain thorough coverage of the soil in each pot. Control pots were sprayed in the same manner with the aqueous mixture. The treated pots and control pots were placed in a greenhouse maintained with an approximate 15 hr photoperiod and temperatures of about 23-29° C. during the day and 22-28° C. during the night. Nutrients and water were added on a regular basis and supplemental lighting was provided with overhead metal halide 1000-Watt lamps as necessary. The water was added by top-irrigation. After 3 weeks the condition of the test plants that germinated and grew as compared with that of the untreated plants that germinated and grew was determined visually and scored on a scale of 0 to 100 percent where 0 corresponds to no injury and 100 corresponds to complete kill or no germination.

The subject of data set [4] is Ivyleaf Morningglory (Ipomoea hederacea). As to the kind of experiment: Preemergence herbicidal activity, Ivyleaf Morningglory. Type of data set: in vivo. The note with it: pre-emergence, 504 h, visual score after 3 weeks, 100 = complete kill or no germination, read-out: Pre-emergent % control IPOHE; for pest or weed control at 280 ppm: rate 280 ppm.
Description: as §2

In data set [5] the test system is Giant Foxtail (Setaria faberi). In words: Preemergence herbicidal activity, Giant Foxtail. Type of data set: in vivo. The note with it: pre-emergence, 504 h, visual score after 3 weeks, 100 = complete kill or no germination, read-out: Pre-emergent % control SETFA; for pest or weed control at 280 ppm: rate 280 ppm.
Description: as §2

Data set [6] deals with Lambsquarter (Chenopodium album). As to the kind of experiment: Preemergence herbicidal activity, Lambsquarter. The note with it: pre-emergence, 504 h, visual score after 3 weeks, 100 = complete kill or no germination, read-out: Pre-emergent % control CHEAL; for pest or weed control at 280 ppm: rate 280 ppm. Type of data set: in vivo.
Description: as §2

The test system of data set [7] is Wheat(var.Merica) (Triticum aestivum). In words: Postemergence herbicidal activity, selectivity to wheat. Type of data set: in vivo. The note with it: crop (wheat) selectivity, visual score after 2 weeks, 0 = no injury. How it is done:
as §1, with “Control plants were sprayed in the same manner with the aqueous mixture. In this test an application rate of 1 ppm results in the application of approximately 1 g/Ha. The treated plants and control plants were placed in a greenhouse as described above and watered by sub-irrigation to prevent wash-off of the test compounds.” left out

In data set [8] the test system is Corn (#14 3377) (Zea mays). In words: Postemergence herbicidal activity, selectivity to corn. Type of data set: in vivo. The note with it: crop (corn) selectivity, visual score after 2 weeks, 0 = no injury. As for the experimental part:
as §1

The subject of data set [9] is Giant Foxtail (Setaria faberi). In words: Postemergence herbicidal activity, Giant Foxtail. Type of data set: in vivo. The note with it: post-emergence, 336 h, visual score after 2 weeks, 0 = no injury, 100 = complete kill, read-out: Post-emergent % control SETFA; for pest or weed control at 250 ppm: rate 250 ppm. As for the experimental part: as §1
For data set [10], the system named is Pigweed (redroot) (Amaranthus retroflexus). As to the kind of experiment: Postemergence herbicidal activity, Pigweed (redroot). Type of data set: in vivo. The settings on record: visual score after 2 weeks, 0 = no injury, 100 = complete kill. How it is done:
as §1

Data set [11] has as its system Cocklebur (Xanthium strumarium). In words: Postemergence herbicidal activity, Cocklebur. The settings on record: post-emergence, 336 h, rate 250 ppm, visual score after 2 weeks, 0 = no injury, 100 = complete kill, read-out: Post-emergent % control XANST. Type of data set: in vivo. As for the experimental part: as §1

SMILES strings stand for the structures.

`COC(=O)c1nc(C)cc(N)c1Cl` [Compound 13, Methyl 4-amino-3-chloro-6-methylpyridine-2-carboxylate]: the pest or weed control at 254 ppm in data set [1] (rate 254 ppm) was 0%; in data set [2] (rate 254 ppm), 70%; in data set [9] (rate 254 ppm), 0%. Further, the pest or weed control at 573 ppm in data set [3] (rate 573 ppm) was determined as 0%; in [4] (rate 573 ppm), 90%; in data set [5] (rate 573 ppm), 0%; in [6] (rate 573 ppm), 100%. In addition, the “Post-emergent % control TRZAS” value in data set [7] (rate 254 ppm) is given as 0%. In addition, in [8] (rate 254 ppm), the “Post-emergent % control ZEAMX” value was determined as 0%. In data set [10] (rate 254 ppm), the “Post-emergent % control AMARE” value stood at 90%.

As for `CCc1cc(N)c(Cl)c(C(=O)O)n1` [Compound 6, 4-Amino-3-chloro-6-ethylpyridine-2-carboxylic acid], the melting point lay within 140 to 142 °C. Further, the pest or weed control at 250 ppm in data set [1] was 0%. In addition, in data set [2], the pest or weed control at 250 ppm amounted to 90%. The pest or weed control at 280 ppm in data set [3] is 15%. Besides, the pest or weed control at 280 ppm in data set [4] turned out to be 100%. Besides, the pest or weed control at 280 ppm in data set [5] turned out to be 0%. For the same compound, in [6], the pest or weed control at 280 ppm turned out to be 90%. For the same compound, in data set [7] (rate 250 ppm), the “Post-emergent % control TRZAS” value came to 0%. In [11], the pest or weed control at 250 ppm came to 98%. For the same compound, the “Post-emergent % control ZEAMX” value in data set [8] (rate 250 ppm) was determined as 0%. Besides, the pest or weed control at 250 ppm in [9] stood at 0%. Further, the “Post-emergent % control AMARE” value in [10] (rate 250 ppm) is listed as 100%.

Take `CCc1cc(N)c(Cl)c(C(=O)OC)n1` [Compound 4, Methyl 4-amino-3-chloro-6-ethylpyridine-2-carboxylate]: the pest or weed control at 250 ppm in [1] turned out to be 0%; in data set [2], 100%; in data set [11], 95%; in data set [9], 0%. Also, the pest or weed control at 280 ppm was 0% in data set [3], 100% in data set [4], 0% in data set [5] and 98% in data set [6]. Besides, the “Post-emergent % control TRZAS” value in [7] (rate 250 ppm) was determined as 0%. Besides, the “Post-emergent % control ZEAMX” value in [8] (rate 250 ppm) worked out at 0%. Moreover, the “Post-emergent % control AMARE” value in [10] (rate 250 ppm) was found to be 98%.

On to `COCc1cc(N)c(Cl)c(C(=O)O)n1` [Compound 9, 4-Amino-3-chloro-6-(methoxymethyl)pyridine-2-carboxylic acid], for which the pest or weed control at 250 ppm in [1] turned out to be 0%; in data set [2] it was 80%; in data set [11], 80%; in [9] it was 0%. The pest or weed control at 560 ppm in data set [3] (rate 560 ppm) came out at 10%; in data set [4] (rate 560 ppm), 50%; in data set [5] (rate 560 ppm) it was 10%; in [6] (rate 560 ppm), 90%. Besides, the “Post-emergent % control ZEAMX” value in data set [8] (rate 250 ppm) is listed as 0%. Moreover, in data set [10] (rate 250 ppm), the “Post-emergent % control AMARE” value was found to be 90%.

`COC(=O)c1nc(C)c(F)c(N)c1Cl` [Compound 12, Methyl 4-amino-3-chloro-5-fluoro-6-methylpyridine-2-carboxylate] gave a melting point of 113 to 114 °C. The pest or weed control at 250 ppm in data set [1] is 80%. In addition, in data set [2], the pest or weed control at 250 ppm worked out at 100%. Besides, the pest or weed control at 140 ppm in data set [3] (rate 140 ppm) was 100%. The pest or weed control at 140 ppm in [4] (rate 140 ppm) worked out at 100%. Further, in data set [5] (rate 140 ppm), the pest or weed control at 140 ppm stood at 98%. Besides, in data set [6] (rate 140 ppm), the pest or weed control at 140 ppm came to 100%. For the same compound, the pest or weed control at 250 ppm in data set [11] came to 100%. The pest or weed control at 250 ppm in data set [9] stood at 95%.
